From patent US8158674B2, “Chalcogenoxanthylium dyes for purging blood pathogens and for photodynamic therapy” (The Research Foundation of State University of New York, priority 2004, dated 2012)
Where “and” joins values, the source holds several entries; their conditions need not be identical. Identical values can stand only once. Entries after “also recorded” stand apart in the source; their conditions may differ. Like-named read-outs stand apart in the source and are kept apart here.

Key:
Pgp = Pgp (Homo sapiens, UniProt P08183); details: cited from earlier work
[1] = n-Octanol/water partition coefficient; details: pH-6 phosphate buffer as the aqueous phase
[2] = Reduction potential by cyclic voltammetry; details: in CH2Cl2, 0.2N Bu4NBF4; vs. ferrocene/ferrocinium couple (E° = +0.40 V)
[3] = Absorption and fluorescence maxima in MeOH; details: for Fluorescence maximum λF: excitation at 532 nm; for Bathochromic shift in λmax: compared to TMR-O
[4] = Quantum yield for generation of singlet oxygen (direct luminescence detection, MeOH); format: physicochemical; details: rose bengal as a standard
[5] = Fluorescence quantum yields and radiative lifetimes; format: physicochemical; details: for Quantum yield for fluorescence φF ± sd: rhodamine 6G as a standard
AUXB1 cells [6] = test: Dye uptake into cell monolayers, AUXB1; format: cell-based, Chinese hamster; details: dye 1×10−5 M for 1 h, 7×10−6 M verapamil
CR1R12 cells [7] = test: Photoradiation of cell cultures (cell viability), CR1R12; details: for Phototoxicity (cell viability): 5.0 J cm−2 light
Description: (§1) Cell lines were maintained in passage culture on 60-mm diameter polystyrene dishes (Corning Costar, Corning, N.Y.) in 4.0 mL Minimum Essential Medium (α-MEM) supplemented with 10% fetal bovine serum (FBS), 50 units mL^−1 penicillin G, 50 ug ml^−1 streptomycin and 1.0 ug mL^−1 Fungizone® (complete medium). Only cells from passages 1-10 were used for experiments. A stock of cells, passages 1-4, were maintained at −86° C. to initiate the experimental cultures. Cultures were maintained at 37° C. in a 5% CO2 humidified atmosphere (Forma Scientific, Marietta, Ohio). […] Cell counts were performed using a particle counter (Model ZM, Coulter Electronics, Hialeah, Fla.).
(§2) Photoradiation of Cell Cultures: Cell lines, AUXB1 or CR1R12, were seeded on 96-well plates in 200 μL/well α-MEM at 1-4×10^4 cells/well. Rhodamine analogues were then added directly to the cell culture medium at various concentrations and incubated for 2 h in the dark as above. The medium was then removed and 200 μL α-MEM minus FBS and phenol red (clear medium) were added to each well. One plate, with the lid removed, was then exposed to 350-750 nm light delivered at 1.4 mW cm^−2 for 1 h (5.0 J cm^−2) from a filtered halogen source while a parallel plate was kept in the dark during the irradiation period. Immediately following irradiation the clear medium was replaced with complete medium and the monolayers were incubated for an additional 24-h period. Subsequently, cells were trypsinized and counted using the Coulter counter to determine cell viability. Determination of cell viability by cell counting is performed according to an earlier method. […] Briefly, cells that detach from the surface of a culture plate stain with trypan blue, i.e. are nonviable, while all cells that remain attached to the surface exclude trypan blue, 100% viable. We were unable to seed new culture plates with cells that detached from the surface after treatment, while cells that remained attached after treatment continued to grow and multiply. Thus, we count only those cells that remain attached to the culture plate surface after treatment and compare those numbers with the cell numbers obtained from control cells, cells not exposed to either dye or light. Data are then expressed as percent cell viability, treated cell counts/control cell counts.

[8] = system: Pgp-expressing CR1R12 cells; test: Dye uptake into cell monolayers, CR1R12; format: cell-based, Chinese hamster; details: for Effect of verapamil on intracellular dye uptake: dye 1×10−5 M, 7×10−6 M verapamil 2 h before dye
CR1R12 cells [9] = system: CR1R12 cells
Description: as §1, §2

extracellular VSV = format: cell-based
[10] = pH 6
Pgp in CR1R12 cells = Pgp in CR1R12 cells (Cricetulus griseus, UniProt P21448); test: Calcein AM uptake, CR1R12; format: cell-based, Chinese hamster; details: dye 1×10−5 M for 2 h in the dark
AUXB1 cells [11] = test: Calcein AM uptake, AUXB1; format: cell-based, Chinese hamster; details: higher concentrations of dye plus light exposure
intracellular VSV = format: cell-based
AUXB1 cells [12] = system: AUXB1 cells
Description: as §1
Photoradiation of Cell Cultures: Cell lines, AUXB1 or CR1R12, were seeded on 96-well plates in 200 μL/well α-MEM at 1-4×10^4 cells/well. Rhodamine analogues were then added directly to the cell culture medium at various concentrations and incubated for 2 h in the dark as above. The medium was then removed and 200 μL α-MEM minus FBS and phenol red (clear medium) were added to each well. […] Subsequently, cells were trypsinized and counted using the Coulter counter to determine cell viability. […] Data are then expressed as percent cell viability, treated cell counts/control cell counts.

[13] = over a wide range of concentrations

Chain of Pgp (P08183 whole entry): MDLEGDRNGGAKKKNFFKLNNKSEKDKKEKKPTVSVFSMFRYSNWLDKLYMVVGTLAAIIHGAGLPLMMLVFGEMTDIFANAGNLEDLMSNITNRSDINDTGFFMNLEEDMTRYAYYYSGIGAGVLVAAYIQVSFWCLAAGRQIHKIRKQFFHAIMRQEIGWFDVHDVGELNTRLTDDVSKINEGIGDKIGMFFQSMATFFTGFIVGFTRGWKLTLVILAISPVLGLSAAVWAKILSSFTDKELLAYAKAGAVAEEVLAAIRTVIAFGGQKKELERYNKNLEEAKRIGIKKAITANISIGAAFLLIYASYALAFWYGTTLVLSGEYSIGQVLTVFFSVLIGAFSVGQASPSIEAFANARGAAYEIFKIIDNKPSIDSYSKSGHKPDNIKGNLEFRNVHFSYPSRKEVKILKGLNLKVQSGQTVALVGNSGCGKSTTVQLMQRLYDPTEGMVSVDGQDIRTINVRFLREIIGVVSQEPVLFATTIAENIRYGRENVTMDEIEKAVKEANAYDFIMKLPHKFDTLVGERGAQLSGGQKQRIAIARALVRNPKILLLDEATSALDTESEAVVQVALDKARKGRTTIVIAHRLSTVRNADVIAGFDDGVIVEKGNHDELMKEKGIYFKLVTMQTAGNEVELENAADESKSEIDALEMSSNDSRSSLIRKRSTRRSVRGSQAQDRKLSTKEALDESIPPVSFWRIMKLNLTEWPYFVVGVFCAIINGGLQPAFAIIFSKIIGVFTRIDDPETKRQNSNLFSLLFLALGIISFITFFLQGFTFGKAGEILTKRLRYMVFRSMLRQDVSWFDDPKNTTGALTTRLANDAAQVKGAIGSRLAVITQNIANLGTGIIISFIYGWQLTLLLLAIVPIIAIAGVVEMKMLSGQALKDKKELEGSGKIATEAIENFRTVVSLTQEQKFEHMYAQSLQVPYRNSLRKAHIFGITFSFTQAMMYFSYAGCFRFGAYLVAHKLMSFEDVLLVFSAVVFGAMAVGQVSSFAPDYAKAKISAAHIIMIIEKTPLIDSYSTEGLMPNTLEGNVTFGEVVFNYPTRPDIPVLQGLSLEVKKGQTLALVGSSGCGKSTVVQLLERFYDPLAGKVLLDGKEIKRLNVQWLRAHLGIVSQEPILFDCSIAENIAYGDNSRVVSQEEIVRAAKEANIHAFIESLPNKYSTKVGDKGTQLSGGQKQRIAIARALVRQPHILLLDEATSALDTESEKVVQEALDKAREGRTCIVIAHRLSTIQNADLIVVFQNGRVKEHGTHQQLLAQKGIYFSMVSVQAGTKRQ
Chain of Pgp in CR1R12 cells (P21448 whole entry): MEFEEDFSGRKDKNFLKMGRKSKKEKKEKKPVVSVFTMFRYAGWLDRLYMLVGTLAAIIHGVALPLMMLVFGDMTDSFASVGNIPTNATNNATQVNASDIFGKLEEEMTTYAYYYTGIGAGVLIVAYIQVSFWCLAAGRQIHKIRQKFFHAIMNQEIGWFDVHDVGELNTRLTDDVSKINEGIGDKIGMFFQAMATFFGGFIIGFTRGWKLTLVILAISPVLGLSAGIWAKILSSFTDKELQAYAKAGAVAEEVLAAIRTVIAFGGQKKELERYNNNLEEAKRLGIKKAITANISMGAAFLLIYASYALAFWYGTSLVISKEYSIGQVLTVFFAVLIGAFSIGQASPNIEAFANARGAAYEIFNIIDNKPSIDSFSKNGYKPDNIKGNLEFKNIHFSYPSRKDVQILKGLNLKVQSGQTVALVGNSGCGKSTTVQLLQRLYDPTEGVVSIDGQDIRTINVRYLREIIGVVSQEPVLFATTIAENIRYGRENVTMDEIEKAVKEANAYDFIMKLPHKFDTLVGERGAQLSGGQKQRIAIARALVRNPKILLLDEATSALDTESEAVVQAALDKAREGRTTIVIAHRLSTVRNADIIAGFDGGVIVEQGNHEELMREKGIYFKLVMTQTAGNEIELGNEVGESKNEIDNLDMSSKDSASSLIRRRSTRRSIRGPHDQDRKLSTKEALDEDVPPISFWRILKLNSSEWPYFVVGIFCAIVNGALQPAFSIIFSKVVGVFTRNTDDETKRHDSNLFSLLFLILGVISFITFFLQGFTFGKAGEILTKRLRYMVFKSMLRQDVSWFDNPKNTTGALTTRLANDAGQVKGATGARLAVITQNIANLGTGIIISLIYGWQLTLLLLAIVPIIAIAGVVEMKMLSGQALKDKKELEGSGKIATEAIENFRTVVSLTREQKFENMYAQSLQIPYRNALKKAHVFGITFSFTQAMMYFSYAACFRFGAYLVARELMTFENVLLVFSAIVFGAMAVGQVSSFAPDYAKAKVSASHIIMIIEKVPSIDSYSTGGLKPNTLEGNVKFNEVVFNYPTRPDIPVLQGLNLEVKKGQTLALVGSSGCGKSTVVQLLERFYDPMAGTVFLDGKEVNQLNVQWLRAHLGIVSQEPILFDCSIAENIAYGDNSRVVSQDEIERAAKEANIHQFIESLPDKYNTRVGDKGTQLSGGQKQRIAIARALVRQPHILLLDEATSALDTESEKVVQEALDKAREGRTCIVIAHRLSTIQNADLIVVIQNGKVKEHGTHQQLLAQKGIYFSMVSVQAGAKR

Row | SMILES | Inhibition of Pgp function (Pgp) | Pgp transport substrate (Pgp) | Reduction potential E° [2] [V] | Absorption maximum λmax [3] [nm] | log ε at λmax [3] | Fluorescence maximum λF [3] [nm] | Quantum yield for generation of singlet oxygen φ(1O2) ± sd [4] | Radiative lifetime τrad [5] | Quantum yield for fluorescence φF ± sd [5] | Intracellular dye accumulation in absence vs presence of verapamil (AUXB1 cells [6]) | Phototoxicity (cell viability) (CR1R12 cells [7]; after 2 h 7×10−6 M verapamil) | Effect of verapamil on intracellular dye uptake [8] | Cell viability, dye alone in the dark (CR1R12 cells [9]) | n-Octanol/water partition coefficient log P [10] | Change in intracellular accumulation of CAM (Pgp in CR1R12 cells) | CAM uptake (AUXB1 cells [11]) | Bathochromic shift in λmax [3] [nm] | further results
1 | COC(=O)c1ccccc1-c1c2ccc(=N)cc-2oc2cc(N)ccc12 [Rh123, rhodamine 123] | do not inhibit Pgp function | transport substrates for Pgp |  |  |  |  |  |  |  |  |  |  |  |  |  |  |  | 
2 | CN(C)c1ccc2c(-c3ccccc3)c3ccc(=[N+](C)C)cc-3oc2c1 [TMR-O, Tetramethylrosamine, reference compound] | do not inhibit Pgp function | transport substrates for Pgp | −0.94 | 552 | 4.92 | 575 | 0.08 and 0.08 ± 0.01 | 2.1±0.1 ns | 0.84 and 0.84 ± 0.01 | similar | no significant phototoxicity | verapamil enhances the uptake; also recorded: significantly enhanced |  |  |  |  |  | n-Octanol/water partition coefficient log P [1]: 1.5; Phototoxicity (cell viability) (CR1R12 cells [7]; without verapamil): no significant phototoxicity; Cell viability, dye alone in the dark (CR1R12 cells [7]; same conditions without light): no significant loss in cell viability
3 | CN(C)c1ccc2[s+]c3ccc(N(C)C)cc3c(-c3ccccc3)c2c1.[Cl-] [TMR-S, 2,7-Bis-N,N-dimethylamino-9-phenylthioxanthylium Chloride] |  |  | −0.79 | 571 | 4.70 | 599 | 0.21 and 0.21 ± 0.02 | 1.5±0.1 ns | 0.44 and 0.44 ± 0.01 | similar | significant cytotoxicity | significantly enhanced | no significant loss in cell viability | 1.2 | no significant change | virtually abolished CAM uptake | 20 | Inactivation of extracellular VSV (extracellular VSV; 5 μM, 7.4 J cm−2 light, 20% hematocrit red cells): More than 8 log10; Inactivation of intracellular VSV (intracellular VSV; 50 μM and 7.4 J cm−2): 1.5 log10; Increase in dye uptake in the presence of verapamil ([8]; dye 1×10−5 M for 1 h, 7×10−6 M verapamil): more than 3 fold
4 | CN(C)c1ccc2[se+]c3ccc(N(C)C)cc3c(-c3ccccc3)c2c1.[Cl-] [TMR-Se, 2,7-Bis-N,N-dimethylamino-9-phenylselenoxanthylium Chloride] |  |  | −0.77 | 582 | 4.84 | 608 | 0.87 and 0.87 ± 0.01 | approximately 50 ps | 0.009 and 0.009 ± 0.001 |  | significant cytotoxicity; also recorded: significant phototoxicity |  | no significant loss in cell viability | 1.1 | no significant change | virtually abolished CAM uptake | 30 | Cell viability, dye alone in the dark (AUXB1 cells [12]): no significant loss in cell viability; Phototoxicity (cell viability) (AUXB1 cells [12]; AUXB1 cells, light, with or without 7×10−6 M verapamil): equally susceptible to phototoxicity; Inactivation of extracellular VSV (extracellular VSV; 1 μM, 2 J cm−2 light, 20% hematocrit red cells): > 7.4 log10; Inactivation of extracellular VSV (extracellular VSV; 5 μM, 2 J cm−2 light, 45% hematocrit red cells): > 7.4 log10; Inactivation of intracellular VSV (intracellular VSV; under the TMR-Se conditions of b117 (1-5 μM, 2 J cm−2)): 0.5 log10
5 | CN(C)c1ccc2sc3ccc(N(C)C)cc3c(=O)c2c1 [compound 2] |  |  |  |  |  |  |  |  |  |  |  |  |  |  |  |  |  | Extracellular virucidal activity (extracellular VSV; [13]): < 2.5 log10; Intracellular virucidal activity (intracellular VSV; [13]): < 0.5 log10
